In US8445492B2, “Method for inhibiting growth of cancer cells and cell telomere and diseases of cell proliferation by using heteroannelated anthraquinone derivative compounds” (National Defense Medical Center, priority 2008, dated 2013):

What was measured:
Type in all cases: cell-based
[1] = test system: MALME-3M; assay: NCI DTP in-vitro dose response, Melanoma
[2] = test system: SK-MEL-5; assay: NCI DTP in-vitro dose response, Melanoma
[3] = test system: UACC-257; assay: NCI DTP in-vitro dose response, Melanoma
[4] = test system: UACC-62; assay: NCI DTP in-vitro dose response, Melanoma
[5] = test system: M14; assay: NCI DTP in-vitro dose response, Melanoma
[6] = test system: LOX IMVI; assay: NCI DTP in-vitro dose response, Melanoma
[7] = test system: SK-MEL-28; assay: NCI DTP in-vitro dose response, Melanoma
[8] = test system: 786-0; assay: NCI DTP in-vitro dose response, Renal Cancer
[9] = test system: CAKI-1; assay: NCI DTP in-vitro dose response, Renal Cancer
[10] = test system: ACHN; assay: NCI DTP in-vitro dose response, Renal Cancer
[11] = test system: SN12C; assay: NCI DTP in-vitro dose response, Renal Cancer
[12] = test system: TK-10; assay: NCI DTP in-vitro dose response, Renal Cancer
[13] = test system: UO-31; assay: NCI DTP in-vitro dose response, Renal Cancer
[14] = test system: A498; assay: NCI DTP in-vitro dose response, Renal Cancer

CCc1nc2ccc3c(c2[nH]1)C(=O)c1ccccc1C3=O [TABLE 4-5]
CC50 [1]: > 100 µM | TGI [1]: 8.69E−5 | Percent Growth ([1]; Log10 Concentration −4.0): −2% | Percent Growth ([1]; Log10 Concentration −5.0): 26% | Percent Growth ([1]; Log10 Concentration −6.0): 83% | Percent Growth ([1]; Log10 Concentration −7.0): 84% | Percent Growth ([1]; Log10 Concentration −8.0): 87% | GI50 ([1]; read-out: GI50): 3.75 µM | CC50 [2]: > 100 µM | TGI [2]: 8.36E−6 | Percent Growth ([2]; Log10 Concentration −4.0): −19% | Percent Growth ([2]; Log10 Concentration −5.0): −5% | Percent Growth ([2]; Log10 Concentration −6.0): 59% | Percent Growth ([2]; Log10 Concentration −7.0): 42% | Percent Growth ([2]; Log10 Concentration −8.0): 44% | CC50 [3]: > 100 µM | TGI [3]: >1.00E−4 | Percent Growth ([3]; Log10 Concentration −4.0): 18% | Percent Growth ([3]; Log10 Concentration −5.0): 66% | Percent Growth ([3]; Log10 Concentration −6.0): 96% | Percent Growth ([3]; Log10 Concentration −7.0): 84% | Percent Growth ([3]; Log10 Concentration −8.0): 84% | GI50 ([3]; read-out: GI50): 21.6 µM | CC50 [4]: > 100 µM | TGI [4]: >1.00E−4 | Percent Growth ([4]; Log10 Concentration −4.0): 26% | Percent Growth ([4]; Log10 Concentration −5.0): 41% | Percent Growth ([4]; Log10 Concentration −6.0): 85% | Percent Growth ([4]; Log10 Concentration −7.0): 92% | Percent Growth ([4]; Log10 Concentration −8.0): 83% | GI50 ([4]; read-out: GI50): 6.18 µM | CC50 [5]: > 100 µM | TGI [5]: >1.00E−4 | Percent Growth ([5]; Log10 Concentration −4.0): 25% | Percent Growth ([5]; Log10 Concentration −5.0): 50% | Percent Growth ([5]; Log10 Concentration −6.0): 78% | Percent Growth ([5]; Log10 Concentration −7.0): 95% | Percent Growth ([5]; Log10 Concentration −8.0): 88% | GI50 ([5]; read-out: GI50): 10.2 µM | CC50 [6]: > 100 µM | TGI [6]: >1.00E−4 | Percent Growth ([6]; Log10 Concentration −4.0): 10% | Percent Growth ([6]; Log10 Concentration −5.0): 33% | Percent Growth ([6]; Log10 Concentration −6.0): 83% | Percent Growth ([6]; Log10 Concentration −7.0): 91% | Percent Growth ([6]; Log10 Concentration −8.0): 101% | GI50 ([6]; read-out: GI50): 4.61 µM | CC50 [7]: > 100 µM | TGI [7]: 6.36E−5 | Percent Growth ([7]; Log10 Concentration −4.0): −12% | Percent Growth ([7]; Log10 Concentration −5.0): 48% | Percent Growth ([7]; Log10 Concentration −6.0): 79% | Percent Growth ([7]; Log10 Concentration −7.0): 84% | Percent Growth ([7]; Log10 Concentration −8.0): 89% | GI50 ([7]; read-out: GI50): 8.58 µM

CCc1nc2ccc3c(c2[nH]1)C(=O)c1ccccc1C3=O [TABLE 4-7]
CC50 [8]: > 100 µM | TGI [8]: >1.00E−4 | Percent Growth ([8]; Log10 Concentration −4.0): 38% | Percent Growth ([8]; Log10 Concentration −5.0): 68% | Percent Growth ([8]; Log10 Concentration −6.0): 95% | Percent Growth ([8]; Log10 Concentration −7.0): 102% | Percent Growth ([8]; Log10 Concentration −8.0): 104% | GI50 ([8]; read-out: GI50): 40.2 µM | CC50 [9]: > 100 µM | TGI [9]: >1.00E−4 | Percent Growth ([9]; Log10 Concentration −4.0): 9% | Percent Growth ([9]; Log10 Concentration −5.0): 20% | Percent Growth ([9]; Log10 Concentration −6.0): 76% | Percent Growth ([9]; Log10 Concentration −7.0): 91% | Percent Growth ([9]; Log10 Concentration −8.0): 97% | GI50 ([9]; read-out: GI50): 2900 nM | CC50 [10]: > 100 µM | TGI [10]: 5.46E−5 | Percent Growth ([10]; Log10 Concentration −4.0): −5% | Percent Growth ([10]; Log10 Concentration −5.0): 14% | Percent Growth ([10]; Log10 Concentration −6.0): 62% | Percent Growth ([10]; Log10 Concentration −7.0): 85% | Percent Growth ([10]; Log10 Concentration −8.0): 94% | GI50 ([10]; read-out: GI50): 1770 nM | CC50 [11]: > 100 µM | TGI [11]: >1.00E−4 | Percent Growth ([11]; Log10 Concentration −4.0): 18% | Percent Growth ([11]; Log10 Concentration −5.0): 46% | Percent Growth ([11]; Log10 Concentration −6.0): 74% | Percent Growth ([11]; Log10 Concentration −7.0): 80% | Percent Growth ([11]; Log10 Concentration −8.0): 74% | GI50 ([11]; read-out: GI50): 7.05 µM | CC50 [12]: > 100 µM | TGI [12]: >1.00E−4 | Percent Growth ([12]; Log10 Concentration −4.0): 3% | Percent Growth ([12]; Log10 Concentration −5.0): 39% | Percent Growth ([12]; Log10 Concentration −6.0): 75% | Percent Growth ([12]; Log10 Concentration −7.0): 113% | Percent Growth ([12]; Log10 Concentration −8.0): 95% | GI50 ([12]; read-out: GI50): 4.88 µM | CC50 [13]: > 100 µM | TGI [13]: >1.00E−4 | Percent Growth ([13]; Log10 Concentration −5.0): 15% | Percent Growth ([13]; Log10 Concentration −6.0): 67% | Percent Growth ([13]; Log10 Concentration −7.0): 83% | Percent Growth ([13]; Log10 Concentration −8.0): 88% | GI50 ([13]; read-out: GI50): 2120 nM | CC50 [14]: > 100 µM | TGI [14]: 4.27E−5 | Percent Growth ([14]; Log10 Concentration −4.0): −20% | Percent Growth ([14]; Log10 Concentration −5.0): 34% | Percent Growth ([14]; Log10 Concentration −6.0): 74% | Percent Growth ([14]; Log10 Concentration −7.0): 97% | Percent Growth ([14]; Log10 Concentration −8.0): 94% | GI50 ([14]; read-out: GI50): 3.89 µM
